Results published in ChEMBL document CHEMBL6182891, “Discovery of novel 1,2,3-Triazole hybrids derivatives as vasorelaxant agents: Molecular structure, Hirshfeld surface, in-vivo and in-silico investigation by molecular docking simulation” (Eur J Med Chem, 2025).

Assays:
Aorta [1] = assay: Vasorelaxant activity in endothelium-intact thoracic aortic rings of albino adult male Wistar rat assessed as reduction in epinephrine-induced contracture at 0.05 to 0.2 mg/ml relative to control; assay type: functional; details: dose 0.05-0.2 mg/ml
Aorta [2] = assay: Vasorelaxant activity in endothelium-intact thoracic aortic rings of albino adult male Wistar rat assessed as reduction in epinephrine-induced contracture; assay type: functional, tissue-based

## O=C(Cn1cc(COC(Cn2cnc3ccccc3c2=O)c2ccccc2)nn1)Nc1ccc(Cl)cc1 (centres undefined)
Aorta [1]
  Emax: 95.1%
Aorta [2]
  EC50: 198 µM

## Cc1ccc(NC(=O)Cn2cc(COC(Cn3cnc4ccccc4c3=O)c3ccccc3)nn2)cc1 (centres undefined)
Aorta [1]
  Emax: 16.4%
Aorta [2]
  EC50: 1040 µM

## COc1ccc(NC(=O)Cn2cc(COC(Cn3cnc4ccccc4c3=O)c3ccccc3)nn2)cc1 (centres undefined)
Aorta [1]
  Emax: 50.9%
Aorta [2]
  EC50: 387 µM

## Cc1ccccc1NC(=O)Cn1cc(COC(Cn2cnc3ccccc3c2=O)c2ccccc2)nn1 (centres undefined)
Aorta [1]
  Emax: 93.5%
Aorta [2]
  EC50: 246 µM

## O=C(Cn1cc(COC(Cn2cnc3ccccc3c2=O)c2ccccc2)nn1)Nc1ccccc1 (centres undefined)
Aorta [1]
  Emax: 35%
Aorta [2]
  EC50: 568 µM

## O=C(Cn1cc(COC(Cn2cnc3ccccc3c2=O)c2ccccc2)nn1)Nc1ccc(F)cc1 (centres undefined)
Aorta [1]
  Emax: 48.2%
Aorta [2]
  EC50: 345 µM

## COc1ccc(CCN(C)CCCC(C#N)(c2ccc(OC)c(OC)c2)C(C)C)cc1OC (centres undefined) [VERAPAMIL]
Aorta [1]
  Emax: 61.7%
Aorta [2]
  EC50: 39 µM
